Data on 3 molecules can be found in paper PMC8102418 (iScience, 2021).

No end group written: not given here.

One test relates to CLK1. Conditions: ref Batson et al., 2017; cited from earlier work.
For the next test, the system named is SRPK2. Conditions: ref Batson et al., 2017; cited from earlier work.
For the next test, the target named is SRPK1 (Homo sapiens, UniProt Q96SB4). In words: In vitro radioactive kinase assay, SRSF1 phosphorylation by SRPK1. The format is biochemical. Conditions: 50 μM [32P]ATP, different inhibitor concentrations.
Test [1] concerns interaction between SRPK1 and SRSF1. In words: In vitro GST pull-down of GST-SRSF1 with SRPK1ΔNS3. The test is classed as binding. Conditions: 500 nM GST-SRSF1, 500 nM SRPK1, 4°C 3 h, SDS-PAGE, Coomassie Blue.
For the next test, the target named is SRPK1 (SRPK1ΔNS3) (Homo sapiens, UniProt Q96SB4). The experiment in a line: Isothermal titration calorimetry. The format is binding. Conditions: SD. In general terms: In ITC the heat of successive injections is recorded.

On to `O=C(Nc1cc(C(F)(F)F)ccc1N1CCN(Cc2ccccn2)CC1)c1ccc(-c2ccncc2)o1` [SPHINX31], for which the “affinity for CLK1 lower than that of SRPK1” value with CLK1 was 50 fold. Further, the “affinity for SRPK2 lower than that of SRPK1” value in the test with SRPK2 is 50 fold.
For the molecule GRKKRRQRRRPQSWQDLKDH [control peptide], the “inhibition of SRSF1 phosphorylation by SRPK1 (in words)” value on SRPK1 was “did not inhibit”. Also, in test [1], the “inhibition of the binding of GST-SRSF1 and SRPK1ΔNS3 (GST pull-down)” value was “did not inhibit”.
In general, Kd refers to a measure of binding affinity in units of concentration. RERARTR [7-mer, R-E-R-A-R-T-R] returned a Kd on SRPK1 (SRPK1ΔNS3) of 112 ± 9.9 µM.
